Data as given in patent publication US20070128217A1 (priority 2003, published 2007).

Experiments:
[1] = tested on: control sera (pooled serum of ten healthy LUMC hospital workers; commercial negative donor pooled serum from the Dutch bloodbank); assay type: binding, human; parameters: Binding of Control serum LUMC to linear peptides / Binding of Control serum Blood-bank to linear peptides / Binding of Control serum LUMC to looped peptides / Binding of Control Serum Blood-Bank to Looped peptides / Binding of Control serum LUMC to linear peptides of the protein M of SARS-CoV Urbani / Binding of Control serum Blood-bank to linear peptides of the protein M of SARS-CoV Urbani / Binding of Control serum LUMC to looped peptides of the protein M of SARS-CoV Urbani / Binding of Control Serum Blood-Bank to Looped peptides of the protein M of SARS-CoV Urbani: unit not given here
[2] = tested on: antibodies in sera from SARS patients (sera 1a, 1b, 2, 6, 37, 62, London, SARS-yellow, SARS-green); assay type: binding, human; parameters: Binding of serum 6 to linear peptides of protein X1 of SARS-CoV Urbani / Binding of serum 37 to linear peptides of protein X1 of SARS-CoV Urbani / Binding of serum 6 to looped/cyclic peptide (PEPSCAN-ELISA) / Binding of serum 37 to looped/cyclic peptide (PEPSCAN-ELISA) / Binding of serum 37 to looped/cyclic peptides of protein X1 of SARS-CoV Urbani / Binding of serum 6 to linear peptides of protein X2 / Binding of serum 37 to linear peptides of protein X2 / Binding of serum 37 to looped/cyclic peptides of protein X2 of SARS-CoV Urbani / Binding of serum 6 to linear peptides of protein M of SARS-CoV Urbani / Binding of serum 37 to linear peptides of protein M of SARS-CoV Urbani / Binding of serum 6 to looped/cyclic peptides of protein M of SARS-CoV Urbani / Binding of serum 37 to looped/cyclic peptides of protein M of SARS-CoV Urbani / Binding of serum 6 to linear peptides of protein X3 of SARS-CoV Urbani / Binding of serum 37 to linear peptides of protein X3 of SARS-CoV Urbani / Binding of serum 37 to looped/cyclic peptides of protein X3 of SARS-CoV Urbani / Binding of serum 6 to linear peptides of protein X4 of SARS-CoV Urbani / Binding of serum 37 to linear peptides of protein X4 of SARS-CoV Urbani / Binding of serum 37 to looped/cyclic peptides of protein X4 of SARS-CoV Urbani / Binding of serum 6 to linear peptides of protein X5 of SARS-CoV Urbani / Binding of serum 37 to linear peptides of protein X5 of SARS-CoV Urbani / Binding of serum 37 to looped/cyclic peptides of protein X5 of SARS-CoV Urbani / Binding of serum 6 to linear peptides of protein N of SARS-CoV Urbani / Binding of serum 37 to linear peptides of protein N of SARS-CoV Urbani / Binding of serum 6 to linear peptide (PEPSCAN-ELISA) / Binding of serum 1a to looped/cyclic peptides of protein N of SARS-CoV Urbani / Binding of serum 1b to looped/cyclic peptides of protein N of SARS-CoV Urbani / Binding of serum 2 to looped/cyclic peptides of protein N of SARS-CoV Urbani / Binding of serum 6 to looped/cyclic peptides of protein N of SARS-CoV Urbani / Binding of serum 37 to looped/cyclic peptides of protein N of SARS-CoV Urbani / Binding of serum 62 to looped/cyclic peptides of protein N of SARS-CoV Urbani / Binding of serum London to looped/cyclic peptides of protein N of SARS-CoV Urbani / Binding of serum SARS-green to looped/cyclic peptides of protein N of SARS-CoV Urbani: unit not given here
[3] = tested on: rabbit serum obtained by immunizing a rabbit with the SARS-CoV strain Frankfurt 1; assay type: binding; parameters: Binding of a rabbit serum to linear peptides / Binding of a rabbit serum to looped peptides / Rabbit serum linear peptides / Rabbit serum looped peptides / Binding of a rabbit serum to linear peptides of protein N of SARS-CoV Urbani (Rabbit serum linear peptides) / Binding of a rabbit serum to looped/cyclic peptides of protein N of SARS-CoV Urbani (Rabbit serum looped peptides): unit not given here

Sequence | Binding of Control Serum Blood-Bank to Looped peptides [1] | Binding of Control serum Blood-bank to linear peptides [1] | Binding of Control serum LUMC to linear peptides [1] | Binding of Control serum LUMC to looped peptides [1] | Binding of serum 1a to linear peptides of protein X1 of SARS-CoV Urbani [2] | Binding of serum 1a to looped/cyclic peptide (PEPSCAN-ELISA) [2] | Binding of serum 1b to linear peptides of protein X1 of SARS-CoV Urbani [2] | Binding of serum 1b to looped/cyclic peptide (PEPSCAN-ELISA) [2] | Binding of serum 2 to linear peptides of protein X1 of SARS-CoV Urbani [2] | Binding of serum 2 to looped/cyclic peptide (PEPSCAN-ELISA) [2] | Binding of serum 6 to linear peptides of protein X1 of SARS-CoV Urbani [2] | Binding of serum 6 to looped/cyclic peptide (PEPSCAN-ELISA) [2] | Binding of serum 37 to linear peptides of protein X1 of SARS-CoV Urbani [2] | Binding of serum 37 to looped/cyclic peptide (PEPSCAN-ELISA) [2] | Binding of serum 62 to linear peptides of protein X1 of SARS-CoV Urbani [2] | Binding of serum 62 to looped/cyclic peptide (PEPSCAN-ELISA) [2] | Binding of serum London to linear peptides of protein X1 of SARS-CoV Urbani [2] | Binding of serum London to looped/cyclic peptide (PEPSCAN-ELISA) [2] | Binding of serum SARS-green to linear peptides of protein X1 of SARS-CoV Urbani [2] | Binding of serum SARS-green to looped/cyclic peptide (PEPSCAN-ELISA) [2] | also measured
KCKSKNPLLYDANYF | 0.7 | 0.6 | 0.5 | 0.7 | 0.7 | 0.7 | 0.4 | 0.5 | 0.5 | 0.4 | 0.5 | 0.4 | 0.6 | 0.8 | 0.5 | 0.7 | 0.2 | 0.3 | 0.2 | 0.3 | Binding of serum SARS-yellow to linear peptides of protein X1 of SARS-CoV Urbani [2]: 0.4; Binding of serum SARS-yellow to looped/cyclic peptide (PEPSCAN-ELISA) [2]: 0.5; Binding of a rabbit serum to linear peptides [3]: 0.2; Binding of a rabbit serum to looped peptides [3]: 0.6
AGGALIARCWYLHEG | 0.7 | 0.6 | 0.5 | 0.4 |  |  |  |  |  |  |  |  |  |  |  |  |  |  |  |  | Binding of serum 1a to linear peptides of protein X5 of SARS-CoV Urbani [2]: 0.8; Binding of serum 1a to looped/cyclic peptides of protein X5 of SARS-CoV Urbani [2]: 0.7; Binding of serum 1b to linear peptides of protein X5 of SARS-CoV Urbani [2]: 0.7; Binding of serum 1b to looped/cyclic peptides of protein X5 of SARS-CoV Urbani [2]: 0.4; Binding of serum 2 to linear peptides of protein X5 of SARS-CoV Urbani [2]: 0.5; Binding of serum 2 to looped/cyclic peptides of protein X5 of SARS-CoV Urbani [2]: 0.5; Binding of serum 6 to linear peptides of protein X5 of SARS-CoV Urbani [2]: 0.7; Binding of serum 6 to looped/cyclic peptides of protein X5 of SARS-CoV Urbani [2]: 0.5; Binding of serum 37 to linear peptides of protein X5 of SARS-CoV Urbani [2]: 0.8; Binding of serum 37 to looped/cyclic peptides of protein X5 of SARS-CoV Urbani [2]: 0.6; Binding of serum 62 to linear peptides of protein X5 of SARS-CoV Urbani [2]: 0.9; Binding of serum 62 to looped/cyclic peptides of protein X5 of SARS-CoV Urbani [2]: 0.5; Binding of serum London to linear peptides of protein X5 of SARS-CoV Urbani [2]: 0.7; Binding of serum London to looped/cyclic peptides of protein X5 of SARS-CoV Urbani [2]: 0.2; Binding of serum SARS-green to linear peptides of protein X5 of SARS-CoV Urbani [2]: 0.7; Binding of serum SARS-green to looped/cyclic peptides of protein X5 of SARS-CoV Urbani [2]: 0.4; Binding of serum SARS-yellow to linear peptides of protein X5 of SARS-CoV Urbani [2]: 0.5; Binding of serum SARS-yellow to looped/cyclic peptides of protein X5 of SARS-CoV Urbani [2]: 0.4; Rabbit serum linear peptides [3]: 0.5; Rabbit serum looped peptides [3]: 0.4
TIPLQASLPFGWLVI | 0.7 | 0.8 | 0.7 | 0.7 | 0.8 | 0.6 | 0.5 | 0.4 | 0.6 | 0.5 | 0.5 | 0.4 | 0.7 | 0.6 | 0.8 | 0.7 | 0.3 | 0.2 | 0.4 | 0.4 | Binding of serum SARS-yellow to linear peptides of protein X1 of SARS-CoV Urbani [2]: 0.4; Binding of serum SARS-yellow to looped/cyclic peptide (PEPSCAN-ELISA) [2]: 0.5; Binding of a rabbit serum to linear peptides [3]: 0.1; Binding of a rabbit serum to looped peptides [3]: 0.5
